Laboratory results from publication PMC8068801, “Novel Benzenesulfonate Scaffolds with a High Anticancer Activity and G2/M Cell Cycle Arrest” (Cancers, 2021).

What was measured:
Lck = molecular target: T1, Lck (Homo sapiens, UniProt P06239); assay: Tyrosine kinase assay (Kinase Selectivity TK-2, ADP-Glo); assay type: biochemical; details: read-out: Inhibitory Effect of the Tyrosine Kinase Activity, Lck
T1 construct: purchased Promega
Procedure: (§1) Assays using the Kinase Selectivity TK-2 profiling systems and ADP-Glo Kinase Assay (both from Promega) were performed to determine the inhibition of the non-receptor tyrosine kinases. The protocol was previously designed and described by our group in reports. The experiments were performed at least four times. The data are expressed as the percentage of the inhibition activity of tyrosine kinase after treatment with the tested derivatives.

BRK = molecular target: T2, BRK (Homo sapiens, UniProt Q13882); assay: as above; assay type: biochemical; details: read-out: Inhibitory Effect of the Tyrosine Kinase Activity, BRK
T2 construct: purchased Promega
Procedure: as §1

BTK = molecular target: T3, BTK (Homo sapiens, UniProt Q06187); assay: as above; assay type: biochemical; details: read-out: Inhibitory Effect of the Tyrosine Kinase Activity, BTK
T3 construct: purchased Promega
Procedure: as §1

Lyn B = molecular target: T4, Lyn B (Homo sapiens, UniProt P07948); assay: as above; assay type: biochemical; details: read-out: Inhibitory Effect of the Tyrosine Kinase Activity, Lyn B
T4 construct: purchased Promega
Procedure: as §1

CSK = molecular target: T5, CSK (Homo sapiens, UniProt P41240); assay: as above; assay type: biochemical; details: read-out: Inhibitory Effect of the Tyrosine Kinase Activity, CSK
T5 construct: purchased Promega
Procedure: as §1

ABL1 = molecular target: T6, ABL1 (Homo sapiens, UniProt P00519); assay: as above; assay type: biochemical; details: read-out: Inhibitory Effect of the Tyrosine Kinase Activity, ABL1
T6 construct: purchased Promega
Procedure: as §1

Src = molecular target: T7, Src (Homo sapiens, UniProt P12931); assay: as above; assay type: biochemical; details: read-out: Inhibitory Effect of the Tyrosine Kinase Activity, Src
T7 construct: purchased Promega
Procedure: as §1

Fyn A = molecular target: T8, Fyn A (Homo sapiens, UniProt P06241); assay: as above; assay type: biochemical; details: read-out: Inhibitory Effect of the Tyrosine Kinase Activity, Fyn A
T8 construct: purchased Promega
Procedure: as §1

HCT 116 p53^−/− cells = assay: MTS cytotoxicity assay, HCT 116 p53-/-; assay type: cell-based, human; details: for IC50: Homo sapiens, HCT 116 p53^−/−, 72 h incubation, MTS; for Selectivity index, HCT 116 p53 −/−: NHDF vs HCT 116 p53 −/−
From the text: (§2) M. Rusin from the Maria Sklodowska-Curie Memorial Cancer Centre and Institute of Oncology in Gliwice, Poland. […] G. Kramer-Marek from the Institute of Cancer Research in London, United Kingdom. The human suspension chronic myelogenous leukemia cell line K562 and pancreas ductal adenocarcinoma cell line PANC-1 were purchased from Sigma-Aldrich (St. Louis, MO, USA), while the normal human dermal fibroblasts cell line NHDF were purchased from PromoCell. […] Each medium contained a combination of two antibiotics: penicillin and streptomycin (1% v/v; Gibco). All of these cell lines were grown under standard conditions at 37 °C with a 5% CO2 humidified atmosphere. Moreover, all of the cell lines were routinely tested for mycoplasma using the PCR technique with specific Mycoplasma primers to confirm that there was no contamination.
(§3) The assay was performed following a 72 h incubation with the various concentrations of the tested compounds. Then, 100 µL DMEM without phenol red with 20 µL of the CellTiter 96®AQueous One Solution-MTS (Promega, Promega, WI, USA) was added to each well and incubated for 1 h or 3 h (PANC-1) at 37 °C. The optical densities of the samples were measured at 490 nm using a multi-plate reader (Synergy 4, BioTek, Winooski, VT, USA). […] Each individual compound was tested in triplicate in a single experiment with each experiment being performed three or four times.

U-251 cells = assay: MTS cytotoxicity assay, U-251; assay type: cell-based, human; details: for IC50: Homo sapiens, U-251, 72 h incubation, MTS; for Selectivity index, U-251: NHDF vs U-251
From the text: as §2, §3

PANC-1 cells = assay: MTS cytotoxicity assay, PANC-1; assay type: cell-based, human; details: for IC50: Homo sapiens, PANC-1, 72 h incubation, MTS; for Selectivity index, PANC-1: NHDF vs PANC-1
From the text: as §2, §3

NHDF cells = assay: MTS cytotoxicity assay, normal fibroblasts NHDF; assay type: cell-based; details: NHDF normal human fibroblasts, 72 h incubation
From the text: as §2, §3

K562 cells = assay: MTS cytotoxicity assay, K562; assay type: cell-based, human; details: for IC50: Homo sapiens, K562, 72 h incubation, MTS; for Selectivity index, K562: normal fibroblasts NHDF vs K562
From the text: as §2, §3

A549 cells = assay: MTS cytotoxicity assay, A549; assay type: cell-based, human; details: for IC50: Homo sapiens, A549, 72 h, A549, 72 h incubation, MTS; for Selectivity index, A549: NHDF vs A549
From the text: as §2, §3

MCF-7 cells = assay: MTS cytotoxicity assay, MCF-7; assay type: cell-based, human; details: for IC50: Homo sapiens, MCF7, MCF-7, 72 h incubation, MTS; for Selectivity index, MCF-7: NHDF vs MCF-7
From the text: as §2, §3

T6 sequence (P00519 whole entry): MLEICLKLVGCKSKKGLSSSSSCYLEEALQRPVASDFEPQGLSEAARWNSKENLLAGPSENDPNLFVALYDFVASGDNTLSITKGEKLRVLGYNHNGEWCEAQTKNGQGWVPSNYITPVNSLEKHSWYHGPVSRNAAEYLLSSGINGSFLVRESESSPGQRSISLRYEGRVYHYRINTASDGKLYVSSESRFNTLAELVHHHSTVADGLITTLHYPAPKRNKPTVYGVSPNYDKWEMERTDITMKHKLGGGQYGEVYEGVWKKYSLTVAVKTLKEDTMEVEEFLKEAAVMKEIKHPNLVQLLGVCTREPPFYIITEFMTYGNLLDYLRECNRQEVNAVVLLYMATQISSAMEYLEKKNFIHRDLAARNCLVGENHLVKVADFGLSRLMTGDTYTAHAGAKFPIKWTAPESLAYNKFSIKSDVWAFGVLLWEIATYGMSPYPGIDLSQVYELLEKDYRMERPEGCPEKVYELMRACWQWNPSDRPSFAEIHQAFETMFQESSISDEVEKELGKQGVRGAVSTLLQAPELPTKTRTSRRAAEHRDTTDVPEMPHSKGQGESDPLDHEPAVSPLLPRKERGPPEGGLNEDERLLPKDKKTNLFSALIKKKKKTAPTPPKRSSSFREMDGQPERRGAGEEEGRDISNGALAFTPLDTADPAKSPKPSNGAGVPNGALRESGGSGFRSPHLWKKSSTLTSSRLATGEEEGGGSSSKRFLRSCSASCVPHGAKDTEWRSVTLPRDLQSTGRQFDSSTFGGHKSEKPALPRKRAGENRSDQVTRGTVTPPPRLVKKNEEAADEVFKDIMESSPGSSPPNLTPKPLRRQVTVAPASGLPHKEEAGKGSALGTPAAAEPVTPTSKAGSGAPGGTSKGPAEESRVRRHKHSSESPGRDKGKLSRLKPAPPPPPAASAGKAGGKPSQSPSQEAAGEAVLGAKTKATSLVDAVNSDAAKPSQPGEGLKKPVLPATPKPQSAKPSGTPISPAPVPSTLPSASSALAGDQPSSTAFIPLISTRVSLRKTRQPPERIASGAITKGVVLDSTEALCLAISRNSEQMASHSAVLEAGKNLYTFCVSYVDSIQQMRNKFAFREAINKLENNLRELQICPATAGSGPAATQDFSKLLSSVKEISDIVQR
T2 sequence (Q13882 whole entry): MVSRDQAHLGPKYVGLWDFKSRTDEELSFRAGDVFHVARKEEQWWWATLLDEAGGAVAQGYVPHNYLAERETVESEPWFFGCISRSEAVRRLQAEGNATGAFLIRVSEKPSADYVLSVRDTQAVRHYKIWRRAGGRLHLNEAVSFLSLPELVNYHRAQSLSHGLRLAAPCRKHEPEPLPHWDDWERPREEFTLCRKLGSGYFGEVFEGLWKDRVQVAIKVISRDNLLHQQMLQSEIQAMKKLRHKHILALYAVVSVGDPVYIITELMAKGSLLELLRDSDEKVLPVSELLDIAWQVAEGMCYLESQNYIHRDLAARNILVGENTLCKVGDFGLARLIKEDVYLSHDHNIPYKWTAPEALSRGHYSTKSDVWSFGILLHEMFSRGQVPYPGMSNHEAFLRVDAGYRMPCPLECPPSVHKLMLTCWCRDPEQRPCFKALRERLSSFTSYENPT
T5 sequence (P41240 whole entry): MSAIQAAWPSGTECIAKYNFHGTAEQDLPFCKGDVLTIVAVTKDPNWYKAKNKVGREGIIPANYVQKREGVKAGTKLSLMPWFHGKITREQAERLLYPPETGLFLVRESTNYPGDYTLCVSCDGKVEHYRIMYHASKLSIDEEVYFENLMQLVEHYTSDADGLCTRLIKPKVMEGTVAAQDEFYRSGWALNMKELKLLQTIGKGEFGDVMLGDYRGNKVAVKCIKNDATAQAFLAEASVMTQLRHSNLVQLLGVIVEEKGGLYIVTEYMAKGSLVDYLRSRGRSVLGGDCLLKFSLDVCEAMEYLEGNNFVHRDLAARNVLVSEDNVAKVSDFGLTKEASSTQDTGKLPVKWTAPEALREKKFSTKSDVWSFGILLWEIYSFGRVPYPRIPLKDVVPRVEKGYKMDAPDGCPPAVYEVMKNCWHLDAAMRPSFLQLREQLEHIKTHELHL
T7 sequence (P12931 whole entry): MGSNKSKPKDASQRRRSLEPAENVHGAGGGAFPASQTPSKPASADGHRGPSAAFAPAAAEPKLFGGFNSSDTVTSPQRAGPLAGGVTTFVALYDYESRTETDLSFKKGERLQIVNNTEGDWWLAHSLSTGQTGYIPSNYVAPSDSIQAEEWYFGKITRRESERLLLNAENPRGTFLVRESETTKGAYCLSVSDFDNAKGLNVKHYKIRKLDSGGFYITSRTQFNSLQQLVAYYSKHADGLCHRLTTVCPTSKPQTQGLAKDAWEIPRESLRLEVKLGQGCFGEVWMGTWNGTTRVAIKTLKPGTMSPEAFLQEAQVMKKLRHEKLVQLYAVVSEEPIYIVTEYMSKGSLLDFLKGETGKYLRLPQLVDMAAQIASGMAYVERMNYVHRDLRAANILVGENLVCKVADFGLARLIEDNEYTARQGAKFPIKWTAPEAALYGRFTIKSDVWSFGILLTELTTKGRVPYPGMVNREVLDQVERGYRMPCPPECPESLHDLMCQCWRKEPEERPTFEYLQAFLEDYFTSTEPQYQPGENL
T1 sequence (P06239 whole entry): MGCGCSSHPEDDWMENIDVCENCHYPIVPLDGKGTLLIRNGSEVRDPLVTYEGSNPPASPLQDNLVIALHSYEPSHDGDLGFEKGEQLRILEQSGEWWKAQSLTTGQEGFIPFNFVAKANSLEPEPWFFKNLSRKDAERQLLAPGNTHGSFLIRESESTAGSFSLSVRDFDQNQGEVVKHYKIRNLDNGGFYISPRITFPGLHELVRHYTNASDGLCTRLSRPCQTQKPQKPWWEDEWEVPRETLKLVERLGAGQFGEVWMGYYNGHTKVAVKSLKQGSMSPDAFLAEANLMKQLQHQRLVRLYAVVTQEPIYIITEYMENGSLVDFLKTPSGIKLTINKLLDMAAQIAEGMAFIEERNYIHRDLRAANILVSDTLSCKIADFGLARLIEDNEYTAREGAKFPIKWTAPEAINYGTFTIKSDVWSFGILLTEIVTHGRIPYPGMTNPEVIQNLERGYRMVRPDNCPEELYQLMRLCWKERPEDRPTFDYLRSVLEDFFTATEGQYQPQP
T3 sequence (Q06187 whole entry): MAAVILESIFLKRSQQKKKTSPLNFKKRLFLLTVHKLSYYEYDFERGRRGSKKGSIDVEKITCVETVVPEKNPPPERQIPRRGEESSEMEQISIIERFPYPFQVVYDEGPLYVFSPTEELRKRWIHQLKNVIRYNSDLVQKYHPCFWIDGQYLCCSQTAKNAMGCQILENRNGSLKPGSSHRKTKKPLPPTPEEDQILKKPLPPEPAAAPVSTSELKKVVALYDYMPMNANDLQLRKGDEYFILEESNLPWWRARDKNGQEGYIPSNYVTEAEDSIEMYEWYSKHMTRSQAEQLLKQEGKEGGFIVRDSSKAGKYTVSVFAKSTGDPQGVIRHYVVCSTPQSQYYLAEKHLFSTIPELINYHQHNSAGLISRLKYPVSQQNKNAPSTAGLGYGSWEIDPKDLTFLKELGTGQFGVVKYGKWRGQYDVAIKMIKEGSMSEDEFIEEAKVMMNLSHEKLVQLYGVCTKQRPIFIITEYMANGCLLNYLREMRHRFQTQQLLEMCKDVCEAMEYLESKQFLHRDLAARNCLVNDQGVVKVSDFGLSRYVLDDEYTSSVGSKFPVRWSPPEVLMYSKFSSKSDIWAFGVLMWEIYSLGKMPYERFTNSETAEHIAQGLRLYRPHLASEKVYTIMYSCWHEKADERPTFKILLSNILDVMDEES
T8 sequence (P06241 whole entry): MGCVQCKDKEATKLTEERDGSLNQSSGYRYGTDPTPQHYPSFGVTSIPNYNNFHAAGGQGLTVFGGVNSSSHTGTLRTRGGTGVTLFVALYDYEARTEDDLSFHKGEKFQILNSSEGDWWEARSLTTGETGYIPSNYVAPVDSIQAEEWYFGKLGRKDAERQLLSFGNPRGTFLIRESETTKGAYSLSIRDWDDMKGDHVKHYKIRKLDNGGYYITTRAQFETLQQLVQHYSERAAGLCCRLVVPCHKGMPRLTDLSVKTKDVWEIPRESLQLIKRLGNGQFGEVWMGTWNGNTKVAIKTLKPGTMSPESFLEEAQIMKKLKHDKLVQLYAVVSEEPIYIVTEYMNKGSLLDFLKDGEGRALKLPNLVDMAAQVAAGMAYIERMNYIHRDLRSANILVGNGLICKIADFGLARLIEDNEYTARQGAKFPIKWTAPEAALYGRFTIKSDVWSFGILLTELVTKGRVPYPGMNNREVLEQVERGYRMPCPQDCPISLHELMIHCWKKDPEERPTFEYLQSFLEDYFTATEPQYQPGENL
T4 sequence (P07948 1-491 isoform P07948-2): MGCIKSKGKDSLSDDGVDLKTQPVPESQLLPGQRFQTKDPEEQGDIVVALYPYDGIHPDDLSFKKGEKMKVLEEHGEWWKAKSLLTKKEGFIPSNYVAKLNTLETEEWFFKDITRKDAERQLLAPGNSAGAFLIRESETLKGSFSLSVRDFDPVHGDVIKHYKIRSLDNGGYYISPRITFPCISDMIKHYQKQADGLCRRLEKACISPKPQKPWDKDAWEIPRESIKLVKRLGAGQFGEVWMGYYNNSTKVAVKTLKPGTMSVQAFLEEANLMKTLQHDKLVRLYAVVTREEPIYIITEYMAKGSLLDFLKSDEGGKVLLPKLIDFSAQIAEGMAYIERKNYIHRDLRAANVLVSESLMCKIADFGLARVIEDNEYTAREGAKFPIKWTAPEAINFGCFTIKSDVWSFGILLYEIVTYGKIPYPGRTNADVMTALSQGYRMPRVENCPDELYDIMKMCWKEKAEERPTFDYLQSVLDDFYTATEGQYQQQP

Work on `COc1ccccc1/C=C/c1nc(OS(=O)(=O)c2ccc3c(c2)OCO3)c2ccccc2n1` [BS1, 2-((E)-2-(2-methoxyphenyl)ethenyl)quinazolin-4-yl 1,3-benzodioxole-5-sulfonate] yielded an inhibition at 0.5 µM (Lck) of 25.8%, an inhibition at 0.5 µM (BRK) of 15.3% and an inhibition at 0.5 µM (BTK) of 18.8%. For the same compound, the inhibition at 0.5 µM (Lyn B) was 0%, the inhibition at 0.5 µM (CSK) was 0% and the inhibition at 0.5 µM (ABL1) was 28.4%. For the same compound, the inhibition at 0.5 µM (Src) was 0.19%, the inhibition at 0.5 µM (Fyn A) was 23.7% and the IC50 (HCT 116 p53^−/− cells) was 0.563 ± 0.121 µM. For the same compound, the “Selectivity index, HCT 116 p53 −/−” value (HCT 116 p53^−/− cells) was 22.27, the IC50 (U-251 cells) was 1.9 ± 0.649 µM and the “Selectivity index, U-251” value (U-251 cells) was 6.61. For the same compound, the IC50 (PANC-1 cells) was 3.98 ± 0.597 µM, the “Selectivity index, PANC-1” value (PANC-1 cells) was 3.15 and the IC50 (NHDF cells) was 12.5 ± 0.855 µM. The IC50 (K562 cells) was 0.172 ± 0.034 µM, the “Selectivity index, K562” value (K562 cells) was 72.91 and the IC50 (A549 cells) was greater than 25 µM. For the same compound, the “Selectivity index, A549” value (A549 cells) was 1.00, the IC50 (MCF-7 cells) was 8.32 ± 1.94 µM and the “Selectivity index, MCF-7” value (MCF-7 cells) was 1.51.
Work on `COc1ccccc1/C=C/c1nc(OS(=O)(=O)c2ccc(C)cc2)c2ccccc2n1` [BS4, 2-((E)-2-(2-methoxyphenyl)ethenyl)quinazolin-4-yl 4-methylbenzenesulfonate] yielded an inhibition at 0.5 µM (Lck) of 19.5%, an inhibition at 0.5 µM (BRK) of 35.5% and an inhibition at 0.5 µM (BTK) of 26.9%. For the same compound, the inhibition at 0.5 µM (Lyn B) was 0%, the inhibition at 0.5 µM (CSK) was 28.3% and the inhibition at 0.5 µM (ABL1) was 0%. The inhibition at 0.5 µM (Src) was 0%, the inhibition at 0.5 µM (Fyn A) was 3.51% and the IC50 (HCT 116 p53^−/− cells) was 3.72 ± 0.487 µM. For the same compound, the “Selectivity index, HCT 116 p53 −/−” value (HCT 116 p53^−/− cells) was 6.71, the IC50 (U-251 cells) was 1.91 ± 0.214 µM and the “Selectivity index, U-251” value (U-251 cells) was 13.11. For the same compound, the IC50 (PANC-1 cells) was 0.235 ± 0.042 µM, the “Selectivity index, PANC-1” value (PANC-1 cells) was 106.38 and the IC50 (NHDF cells) was greater than 25 µM. The IC50 (K562 cells) was 0.173 ± 0.031 µM, the “Selectivity index, K562” value (K562 cells) was 144.51 and the IC50 (A549 cells) was 11.3 ± 1.76 µM. The “Selectivity index, A549” value (A549 cells) was 2.20, the IC50 (MCF-7 cells) was 9.13 ± 2.05 µM and the “Selectivity index, MCF-7” value (MCF-7 cells) was 2.74.
With `COc1ccccc1/C=C/c1nc(OS(=O)(=O)c2cc3c(cc2Br)OCO3)c2ccccc2n1` [BS2, 2-((E)-2-(2-methoxyphenyl)ethenyl)quinazolin-4-yl 6-bromo-1,3-benzodioxole-5-sulfonate] the inhibition at 0.5 µM (Lck) was 9.93%, the inhibition at 0.5 µM (BRK) was 9.33% and the inhibition at 0.5 µM (BTK) was 40.2%. It also gave an inhibition at 0.5 µM (Lyn B) of 38%, an inhibition at 0.5 µM (CSK) of 34.2% and an inhibition at 0.5 µM (ABL1) of 0%. It also gave an inhibition at 0.5 µM (Src) of 26.3%, an inhibition at 0.5 µM (Fyn A) of 0% and an IC50 (HCT 116 p53^−/− cells) of 1.31 ± 0.29 µM. The “Selectivity index, HCT 116 p53 −/−” value (HCT 116 p53^−/− cells) was 11.94, the IC50 (U-251 cells) was 2.3 ± 0.234 µM and the “Selectivity index, U-251” value (U-251 cells) was 6.80. The IC50 (PANC-1 cells) was 2.91 ± 0.622 µM, the “Selectivity index, PANC-1” value (PANC-1 cells) was 5.39 and the IC50 (NHDF cells) was 15.7 ± 1.41 µM. The IC50 (K562 cells) was 0.246 ± 0.055 µM, the “Selectivity index, K562” value (K562 cells) was 63.70 and the IC50 (A549 cells) was greater than 25 µM. The “Selectivity index, A549” value (A549 cells) was 1.00, the IC50 (MCF-7 cells) was 16.8 ± 2.06 µM and the “Selectivity index, MCF-7” value (MCF-7 cells) was 0.93.
